The source of these data is ChEMBL document CHEMBL1130535, “Synthesis of triphosphonate analogues of farnesyl pyrophosphate. Inhibitors of squalene synthase and protein:farnesyl transferase” (Bioorg Med Chem Lett, 1997).

Broadly, the IC50 is the midpoint of a concentration-inhibition curve. Higher therefore signals weaker potency in that assay.

For one assay, the target named is T1, Squalene synthase (Homo sapiens, UniProt P37268).
T1 sequence (P37268 whole entry): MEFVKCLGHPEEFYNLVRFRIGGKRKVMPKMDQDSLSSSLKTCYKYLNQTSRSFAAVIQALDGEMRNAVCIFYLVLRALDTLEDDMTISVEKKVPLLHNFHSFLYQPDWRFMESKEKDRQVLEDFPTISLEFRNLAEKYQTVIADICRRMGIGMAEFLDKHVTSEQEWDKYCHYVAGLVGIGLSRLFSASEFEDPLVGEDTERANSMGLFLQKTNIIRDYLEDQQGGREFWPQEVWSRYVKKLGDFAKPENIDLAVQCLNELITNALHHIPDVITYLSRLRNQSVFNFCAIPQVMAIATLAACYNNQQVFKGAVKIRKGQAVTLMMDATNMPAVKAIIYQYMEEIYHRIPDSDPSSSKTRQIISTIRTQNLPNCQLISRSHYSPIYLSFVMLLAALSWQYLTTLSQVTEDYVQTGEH
The assay is described as follows: Inhibition of Squalene Synthase.

Assay [1] addresses Protein farnesyltransferase (Homo sapiens, UniProt P49354+P49356). Kind of assay: Inhibition of Farnesyl Transferase. Format: protein-complex assay.

With `CC(C)=CCC/C(C)=C/CC/C(C)=C/CC1P(=O)(O)CP(=O)(O)OP1(=O)O` (stereo not given), the IC50 on Squalene synthase came to 46.4 µM; in assay [1], 34.2 µM.

Consider `CC(C)=CCC/C(C)=C/CC/C(C)=C/CC1(C/C=C(\C)CC/C=C(\C)CCC=C(C)C)P(=O)(O)CP(=O)(O)OP1(=O)O` (stereo not given), for which the IC50 at Squalene synthase is over 50 µM; in assay [1], 56.2 µM.

As for `CC(C)=CCC/C(C)=C/CC/C(C)=C/CC(P(=O)(O)O)P(=O)(O)CP(=O)(O)O` (stereo not given), the IC50 on Squalene synthase turned out to be 1.1 µM; in assay [1], 1.81 µM.

Regarding `CC(C)=CCC/C(C)=C/CC/C(C)=C/CC(P(=O)(O)O)P(=O)(O)O`, the concentration for half-maximal inhibition (IC50) at Squalene synthase was determined as 0.018 µM; in assay [1], 13.5 µM.

Regarding `CC(C)=CCC/C(C)=C/CC/C(C)=C/CC(C/C=C(\C)CC/C=C(\C)CCC=C(C)C)(P(=O)(O)O)P(=O)(O)CP(=O)(O)O` (stereo not given), the IC50 against Squalene synthase is 23.3 µM; in assay [1], 3.99 µM.
